Literature values as cited in PMC2096654 (Purinergic Signalling, 2006).

Biological target: T1, human A3 adenosine receptor (Homo sapiens, UniProt P0DMS8)
T1 sequence (P0DMS8 1-318): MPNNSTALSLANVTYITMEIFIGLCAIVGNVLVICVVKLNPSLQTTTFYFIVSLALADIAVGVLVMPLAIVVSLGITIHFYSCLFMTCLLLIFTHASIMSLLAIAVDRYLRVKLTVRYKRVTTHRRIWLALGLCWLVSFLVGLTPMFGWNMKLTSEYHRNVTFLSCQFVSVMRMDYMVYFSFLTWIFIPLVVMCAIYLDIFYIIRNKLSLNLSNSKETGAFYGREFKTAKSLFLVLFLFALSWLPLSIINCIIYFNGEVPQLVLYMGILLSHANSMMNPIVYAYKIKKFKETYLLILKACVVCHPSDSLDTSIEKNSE
Details: reference agonist

agonist behaviour at A3 receptor: full agonist
Compound: CNC(=O)[C@H]1O[C@@H](n2cnc3c(NCc4cccc(I)c4)nc(Cl)nc32)[C@H](O)[C@@H]1O [Cl-IB-MECA, 2-chloro-N^6-(3-iodobenzyl)-5′methylcarboxamidoadenosine]
